Data as given in patent publication US20150165380A1, “DRAW SOLUTES COMPRISING ALKYL AMMONIUM SALT COMPOUNDS” (Samsung Electronics Co., Ltd., priority 2013, published 2015).

Legend:
[1] = Evaluation of osmotic pressure of draw solutions (Osmomat 010, freezing point lowering method); type: physicochemical
Experimental: Osmotic pressure of each draw solution is measured by using osmotic pressure measurement equipment (Osmomat 010) in accordance with the freezing point lowering method.

[2] = Osmotic flow analysis: water flux and reverse solute flux in U-shaped semi-dynamic forward osmosis apparatus; settings: feed distilled water
Experimental: The osmotic flow is evaluated with a homemade, U-shaped semi-dynamic forward osmosis apparatus. To test performance of the draw solute, a semi-permeable commercialized FO membrane (cellulose trifluoroacetate) (Hydration Technology Innovation (HTI), USA) is placed in the middle of the apparatus. Each side is filled with distilled water as a feed solution and a draw solution with predetermined or given concentrations, respectively. The selective layer is faced toward the feed solutions and osmotic water flux from feed to draw solutions is calculated from the volumetric change of each solution during one hour after 30 min. The reversed solute flux from draw to feed solution through the membrane is measured by conductivity, inductively coupled plasma optical emission spectroscopy (ICP-OES), and total organic carbon (TOC).

[3] = draw solution osmotic pressure 15.0
[4] = draw solution osmotic pressure 29.0
[5] = draw solution osmotic pressure 43.0
[6] = draw solution osmotic pressure 8.3
[7] = draw solution osmotic pressure 23.5
[8] = draw solution osmotic pressure 57.6

`[Cl-].[Cl-].[Mg+2]` [Comp. Example 1, MgCl2] showed an Osmotic pressure ([1]; draw solution concentration 19.0 mg/ml) of 11.9 atm, an Osmotic pressure ([1]; draw solution concentration 38.1 mg/ml) of 25.2 atm and an Osmotic pressure ([1]; draw solution concentration 76.2 mg/ml) of 60.6 atm. For the same compound, the Reverse solute flux [2, 3] was 3.3 GMH, the Water flux [2, 3] was 5.6 LMH and the Reverse solute flux [2, 4] was 4.8 GMH. It also gave a Water flux [2, 4] of 8.2 LMH, a Reverse solute flux [2, 5] of 5.6 GMH and a Water flux [2, 5] of 9.7 LMH.
`O=S(=O)([O-])[O-].[Mg+2]` [Comp. Example 2, MgSO4] gave an Osmotic pressure ([1]; draw solution concentration 60.2 mg/ml) of 11.7 atm, an Osmotic pressure ([1]; draw solution concentration 120.4 mg/ml) of 25.8 atm and an Osmotic pressure ([1]; draw solution concentration 240.7 mg/ml) of 62.4 atm. For the same compound, the Reverse solute flux [2, 3] was 0.9 GMH, the Water flux [2, 3] was 4.2 LMH and the Reverse solute flux [2, 4] was 1.2 GMH. It also gave a Water flux [2, 4] of 5.5 LMH.
`NCCN.O=C(O)CC(O)(CC(=O)O)C(=O)[O-].O=C([O-])CC(O)(CC(=O)[O-])C(=O)[O-].[Na+].[Na+].[Na+].[Na+]` [Example 1] showed an Osmotic pressure ([1]; draw solution concentration 29.6 mg/ml) of 5.8 atm, an Osmotic pressure ([1]; draw solution concentration 118.4 mg/ml) of 21.8 atm and an Osmotic pressure ([1]; draw solution concentration 177.6 mg/ml) of 33.8 atm. The Osmotic pressure ([1]; draw solution concentration 236.8 mg/ml) was 50.4 atm, the Osmotic pressure ([1]; draw solution concentration 266.4 mg/ml) was 61.1 atm and the Reverse solute flux [2, 6] was 0 GMH. It also gave a Water flux [2, 6] of 4.06 LMH, a Reverse solute flux [2, 7] of 0.02 GMH and a Water flux [2, 7] of 8.25 LMH. It also gave a Reverse solute flux [2, 8] of 0.41 GMH and a Water flux [2, 8] of 11.58 LMH.
`NCCNCCNCCNCCN.O=C(O)CC(O)(CC(=O)O)C(=O)[O-].O=C(O)CC(O)(CC(=O)O)C(=O)[O-].O=C([O-])CC(O)(CC(=O)O)C(=O)[O-].O=C([O-])CC(O)(CC(=O)[O-])C(=O)[O-].O=C([O-])CC(O)(CC(=O)[O-])C(=O)[O-].[Na+].[Na+].[Na+].[Na+].[Na+].[Na+].[Na+].[Na+].[Na+].[Na+]` [Example 2] gave an Osmotic pressure ([1]; draw solution concentration 34.2 mg/ml) of 6.3 atm, an Osmotic pressure ([1]; draw solution concentration 68.5 mg/ml) of 11.8 atm and an Osmotic pressure ([1]; draw solution concentration 102.7 mg/ml) of 17.5 atm. It also gave an Osmotic pressure ([1]; draw solution concentration 205.43 mg/ml) of 37.5 atm and an Osmotic pressure ([1]; draw solution concentration 301.2 mg/ml) of 67.1 atm.
`NCCCCCCNCCCCCCN.O=C(O)CC(O)(CC(=O)O)C(=O)[O-].O=C([O-])CC(O)(CC(=O)O)C(=O)[O-].O=C([O-])CC(O)(CC(=O)[O-])C(=O)[O-].[Na+].[Na+].[Na+].[Na+].[Na+].[Na+]` [Example 4] showed an Osmotic pressure ([1]; draw solution concentration 46.2 mg/ml) of 8.6 atm, an Osmotic pressure ([1]; draw solution concentration 92.3 mg/ml) of 17.2 atm and an Osmotic pressure ([1]; draw solution concentration 184.6 mg/ml) of 38.2 atm. It also gave an Osmotic pressure ([1]; draw solution concentration 249.2 mg/ml) of 59.3 atm.
`NCCNCCN.O=S(=O)(O)O.O=S(=O)([O-])O.O=S(=O)([O-])[O-].[Na+].[Na+].[Na+]` [Example 7] gave an Osmotic pressure ([1]; draw solution concentration 46.3 mg/ml) of 10.2 atm, an Osmotic pressure ([1]; draw solution concentration 92.6 mg/ml) of 18.2 atm and an Osmotic pressure ([1]; draw solution concentration 185.2 mg/ml) of 20.4 atm. For the same compound, the Osmotic pressure ([1]; draw solution concentration 277.8 mg/ml) was 26.8 atm, the Osmotic pressure ([1]; draw solution concentration 370.4 mg/ml) was 37.6 atm and the Osmotic pressure ([1]; draw solution concentration 463.0 mg/ml) was 62.8 atm.
